Results published in patent US12551173B2, “System and method for single-scan rest-stress cardiac PET” (The General Hospital Corporation, priority 2012, dated 2026).
Where “and” joins values, the source holds several entries; their conditions need not be identical. Equal values may be shown once. Values belong to the compound of their own block, whether it stands above or below them.

How the values were obtained:
myocardium [1] = settings: cited from earlier work
myocardium [2] = assay: 100-min dynamic 18F-Flurpiridaz PET in cynomolgus monkey, 2-compartment model fit; type: in vivo
Text: Due to the relatively short measurements obtained in human studies, longer duration ^18F-Flurpiridaz measurements were made in a healthy 4.1-kg cynomolgus monkey. The animal was imaged under resting state and general anesthesia with 1%-2% isoflurane mixed with 100% oxygen. A 100-min dynamic ^18F-Flurpiridaz PET study, with 1.25 mCi injected dose, was acquired with a microPET P4 system from Concorde Microsystems, Inc. Images were reconstructed with filtered back-projection (FBP) into 24×5-s, 6×30-s, 5×60-s, and 18×300-s frames. The LV and RV input functions were extracted with GFADS. A region of interest was drawn over the myocardium and used to calculate the time-activity curve, which was then fitted to the standard four parameter, two-compartment model, with corrections for blood-to-tissue spillover in Eq. (3). Compartment model kinetic analysis tool (COMKAT) (Muzic Jr., R. F., et al., J. Nucl. Med. 42, 636-645, 2001; Fang, Y. H., et al., J. Nucl. Med. 51, 77-84, 2010) under MATLAB R2009a (Mathworks, Natick MA) was used to perform the nonlinear least squares for parameter estimation with the frame duration used as the statistical weight. After the kinetic parameters were estimated from the 100-min time-activity curve, the data were refit while progressively reducing the observation period. First, K1, k2, f1, and fRV were estimated as a function of study duration of the time-activity curves, ranging from 1 to 10 min. Due to the short measurement periods used, k3 and k4 were fixed to the values estimated by the 100-min data. The parameter variance of each parameter was approximated by the covariance matrix from the nonlinear least squares fitting. Then, the duration of the time-activity curve was fixed to 10 min and estimation of K1, k2, f1, and fRV was repeated with k3 fixed at values ranging from 0 to 0.1, incremented by 0.005. k4 was fixed as the value derived from fitting the 100-min data. Again, variance of each estimated parameter was approximated by the covariance matrix.
Still another aspect of the present system and methods includes ^18F-Flurpiridaz myocardial blood flow estimation using dynamic PET in non-human primates. To evaluate the parameter precision when estimating the MBF, a long dynamic study was conducted on a 4.1-kg cynomolgus monkey and the MBF precision was examined with different durations of data being used for kinetic modeling. A dynamic ^18F-Flurpiridaz imaging study was performed on a microPET P4. The animal was imaged under the resting state for 100 minutes with an injected dose of 1.25 mCi. […] The LV (FIGS. 11A-11B) and RV input function were extracted with GFADS. Time-activity curve from a region of interest drawn over the myocardium was fitted to the 2-compartment model. The estimated parameters are: K1=0.51 (SD=1.5%), k2=0.075 (SD=4.7%), k3=0.026 (SD=10.2%) and k4=0.016 (SD=10.4%). […] To evaluate the precision of K1 and k2, different study durations were used, ranging from one minute to 10 minutes to estimate K1 and k2 (with k3 and k4 fixed) as plotted for K1 in FIG. 14B.

myocardium [3] = assay: Kinetic analysis of clinical 18F-Flurpiridaz rest and stress PET, two-compartment tissue model, three subjects; type: in vivo, human; set-up: unit not given here
Protocol: To evaluate and compare the methods proposed in this work, simulation studies were performed based on the kinetic parameters derived from human studies conducted with ^18F-Flurpiridaz, formerly known as ^18F-BMS747158-02 (Lantheus Medical Imaging, North Billerica, MA). As a pyridazinone analog, ^18F-Flurpiridaz binds to the mitochondrial complex I with high affinity. The combination of high first pass extraction and complex I binding ensure a high uptake in the myocardium with long residence time, due to the high mitochondrial density in the myocardial wall. Data from a rat model have shown that ^18F-Flurpiridaz has an extraction fraction of greater than 90% over the physiological MBF range, which makes it an attractive perfusion tracer. Validation of MBF measured with ^18F-Flurpiridaz has been performed by Nekolla et al. in pigs by comparison to microsphere and ^13N-ammonia flow measurements.
As an example case, kinetic analysis was carried out based on ^18F-Flurpiridaz clinical data. ^18F-Flurpiridaz data was used to determine the local myocardial kinetics used in the simulations. […] In these studies, rest and stress imaging sessions were separated by at least 2 h. First, the rest and stress studies for each of the subjects were analyzed separately. […] For each subject, the acquired stress images were first aligned to the images of the rest study using the nonrigid image registration tool from SPM8 9 Ashburner, J., et al., Hum. Brain Mapp 7, 254-266, 1999). The LV and RV input functions for each subject and each study were extracted with generalized factor analysis on dynamic series (GFADS) (El Fakhri, G., et al., J. Nucl. Med. 46, 1264-1271, 2005; El Fakhri, G., et al., Med. Phys. 33, 1016-1024, 2006). The LV input function was used to approximate the plasma input function. No metabolite correction was performed. Because there is a 2-h gap between the rest and stress studies, the residual myocardial activity from the first tracer is mostly tracer bound to MC 1 and is nearly unaffected by the stressor. The rest and stress image volumes of the heart were segmented into 17 standard segments. Time-activity curves were calculated for each segment. The residual activity from the rest study was estimated and subtracted from the stress time-activity curve. Then, the kinetic parameters were estimated for each segment under the resting state with its 25-min time-activity curve. k3 was fixed as 0.026 (1/min) during the curve fitting. For the time-activity curve of the stress study, only data within the first 7.5 min were used in the curve fitting. After the parameters were estimated for all 17 segments, the cardiac flow reserve (CFR=K1,s/K1,r) of each segment was calculated. For the left anterior descending (LAD) territory, the segments with the two lowest CRF values were selected and the mean of each kinetic parameter was calculated from the estimated parameters of those two segments. The same calculation was repeated for right coronary artery (RCA) and left circumflex (LCX) as well. After two segments were picked for each territory, the kinetic parameters of the other 11 segments were averaged to compute the average kinetic parameters of the normal myocardium. The computation of the kinetic parameters of the normal myocardium, LAD, LCX, and RCA territories was performed separately for each subject. Table 1 summarizes kinetic parameters K1 and k2 estimated from the clinical ^18F-Flurpiridaz studies and used for Monte Carlo simulations.

myocardium [4] = settings: rat model, over the physiological MBF range; cited from earlier work
myocardium [5] = assay: Tracer properties in the two-tissue compartment model (extraction, binding ratio); type: in vivo
Text: In another aspect, a flow measurement strategy incorporates knowledge of the basic properties of partially trapped tracers with a two-tissue compartment model, allowing simplifications appropriate to quantitative flow measurements. In this model the tracer can be in one of two states, either free, as the injected molecule, or bound to a receptor. In the example case of ^18F-Flurpiridaz, previous studies have shown that it binds to the mitochondrial complex I. The product of plasma concentration (Cr) and transport rate K1 is the force driving tracer from capillary plasma to the free space. Symbolically, K1 is the plasmato-tissue transport rate, FE, the product of flow F and the unidirectional capillary extraction fraction, E. k2 is a rate constant summarizing the egress from tissue to plasma. The rate constants k3 and k4 provide a summary description of binding and release of tracer. The full operational equation for the two compartment model is well known. In one aspect a focus is directed to the first few minutes after IV injection. […] Second, the ratio k3/(k2+k3), is between 0.2-0.6, meaning that after the first few minutes of scanning, about half the tracer entering the tissue space is bound and the effect of binding must be considered when interpreting the data. Third, it has been shown that at least an hour of scanning is required to obtain good estimates of all parameters. […]

mitochondrial complex I = settings: cited from earlier work
myocardial blood flow = settings: intravenous infusion, from start of infusion; cited from earlier work
[6] = resting state, 100 minutes of data, 1.25 mCi
[7] = Subject 1, LAD territory, Stress
[8] = Subject 1, LCX territory, Stress
[9] = Subject 1, Normal myocardium, Rest
[10] = Subject 1, Normal myocardium, Stress
[11] = Subject 1, RCA territory, Stress
[12] = Subject 2, LAD territory, Stress
[13] = Subject 2, LCX territory, Stress
[14] = Subject 2, Normal myocardium, Rest
[15] = Subject 2, Normal myocardium, Stress
[16] = Subject 2, RCA territory, Stress
[17] = Subject 3, LAD territory, Stress
[18] = Subject 3, LCX territory, Stress
[19] = Subject 3, Normal myocardium, Rest
[20] = Subject 3, Normal myocardium, Stress
[21] = Subject 3, RCA territory, Stress

estimated K1 as a function of the nominal value of k3 (myocardium [2]; rest state, k3 fixed at values between 0 and 0.1 min^-1 (FIG. 2B)): 0.498 to 0.507 | K1 (myocardium [2]; [6]): 0.51 (SD=1.5%) | k2 (myocardium [2]; [6]): 0.075 (SD=4.7%) | k3 (myocardium [2]; [6]): 0.026 (SD=10.2%) | k4 (myocardium [2]; [6]): 0.016 (SD=10.4%) | K1 (myocardium [3]; Subject 1, LAD territory, Rest): 0.56 | k2 (myocardium [3]; Subject 1, LAD territory, Rest): 0.07 | K1 (myocardium [3]; [7]): 1.04 | k2 (myocardium [3]; [7]): 0.05 | K1 (myocardium [3]; Subject 1, LCX territory, Rest): 0.58 | k2 (myocardium [3]; Subject 1, LCX territory, Rest): 0.08 | K1 (myocardium [3]; [8]): 0.99 | k2 (myocardium [3]; [8]): 0.05 | K1 (myocardium [3]; [9]): 0.68 | k2 (myocardium [3]; [9]): 0.08 | K1 (myocardium [3]; [10]): 1.96 | k2 (myocardium [3]; [10]): 0.07 | K1 (myocardium [3]; Subject 1, RCA territory, Rest): 0.74 | k2 (myocardium [3]; Subject 1, RCA territory, Rest): 0.08 | K1 (myocardium [3]; [11]): 1.26 | k2 (myocardium [3]; [11]): 0.08 | K1 (myocardium [3]; Subject 2, LAD territory, Rest): 0.78 | k2 (myocardium [3]; Subject 2, LAD territory, Rest): 0.11 | K1 (myocardium [3]; [12]): 1.60 | k2 (myocardium [3]; [12]): 0.07 | K1 (myocardium [3]; Subject 2, LCX territory, Rest): 0.94 | k2 (myocardium [3]; Subject 2, LCX territory, Rest): 0.13 | K1 (myocardium [3]; [13]): 2.10 | k2 (myocardium [3]; [13]): 0.10 | K1 (myocardium [3]; [14]): 0.738 and 0.74 | k2 (myocardium [3]; [14]): 0.108 and 0.11 | K1 (myocardium [3]; [15]): 2.292 and 2.29 | k2 (myocardium [3]; [15]): 0.118 and 0.12 | K1 (myocardium [3]; Subject 2, RCA territory, Rest): 0.68 | k2 (myocardium [3]; Subject 2, RCA territory, Rest): 0.08 | K1 (myocardium [3]; [16]): 1.43 | k2 (myocardium [3]; [16]): 0.11 | K1 (myocardium [3]; Subject 3, LAD territory, Rest): 0.64 | k2 (myocardium [3]; Subject 3, LAD territory, Rest): 0.04 | K1 (myocardium [3]; [17]): 1.58 | k2 (myocardium [3]; [17]): 0.18 | K1 (myocardium [3]; Subject 3, LCX territory, Rest): 0.69 | k2 (myocardium [3]; Subject 3, LCX territory, Rest): 0.05 | K1 (myocardium [3]; [18]): 1.61 | k2 (myocardium [3]; [18]): 0.24 | K1 (myocardium [3]; [19]): 0.60 | k2 (myocardium [3]; [19]): 0.05 | K1 (myocardium [3]; [20]): 2.09 | k2 (myocardium [3]; [20]): 0.23 | K1 (myocardium [3]; Subject 3, RCA territory, Rest): 0.58 | k2 (myocardium [3]; Subject 3, RCA territory, Rest): 0.03 | K1 (myocardium [3]; [21]): 0.68 | k2 (myocardium [3]; [21]): 0.17 | ratio k3/(k2+k3) (myocardium [5]): 0.2-0.6
SMILES: CC(C)(C)n1ncc(OCc2ccc(COCCF)cc2)c(Cl)c1=O [18F-Flurpiridaz]
unidirectional extraction fraction (myocardium [1]; at all physiological flow rates): greater than 90% | first-pass extraction (myocardium [1]; in the coronary circulation): nearly complete | extraction fraction (myocardium [4]): greater than 90% | binding to mitochondrial complex I (mitochondrial complex I): high affinity

SMILES: Nc1ncnc2c1ncn2[C@@H]1O[C@H](CO)[C@@H](O)[C@H]1O [adenosine]
time to reach the peak hyperemia (myocardial blood flow): 1.5 min

SMILES: OCCN(CCO)c1nc(N2CCCCC2)c2nc(N(CCO)CCO)nc(N3CCCCC3)c2n1 [dipyridamole]
time to reach the peak hyperemia (myocardial blood flow): 6.5 min
